What was measured:
[1] = test system: regrafted Schvetz's erythroleukosis; test: Antitumor activity against regrafted Schvetz's erythroleukosis in rats; type: in vivo, white non-descript rats
Protocol: Their antitumor activity was studies in respect of regrafted Schvetz's erythroleukosis. The antitumor activity of each of the compounds according to the present invention was assessed from the experiments carried out on white non-descript rats with a mass of 150-200 g (10 animals in a group). The animals were hypodermally inoculated (in the thigh) with 2×10^8 cells of a regrafted Schvetz's erythroleukosis strain. On the 4th day after inoculation of the tumor cells, i.e. during the period of the lograithmic phase of the tumor growth the animals were administered with the compounds according to the present invention. They were administered once intraperitoneally or directly into the tumor node as powders. The compounds according to the present invention were administered in maximum effective and minimum effective doses:
The antitumor effect of the compounds according to the present invention was studies in comparison with the control and with the known preparations--CDDP and polymethylsiloxane.
The administered dose of CDDF was 8.1 mg/kg, that of polymethylsiloxane--4,000 mg/kg. […] Polymethylsiloxane was introduced in the form of a powder. Prior to administration the powders of polymethylsiloxane and of the compounds according to the present invention were sterilized by autoclaving in sealed flasks or in package from parchment paper for one hour under the excessive pressure of 1.0 atm and at the temperatuer of 100° C.
The animals were narcotized by way of a hypodermal injection of hexenal in a dose of from 40 to 60 mg/kg in the case of an intraperitoneal adminsitration of the compounds according to the present invention. […]
The antitumor activity of the test compounds was assessed for the following biological characteristics; the degree of inhibition of the tumor growth, survival of animals on the 10th day after inoculation of the tumor cells, life span of the animals.

[2] = test system: inner organs; test: Autopsy, morphological and histological investigations of inner organs; type: in vivo, rats; mice; details: doses lesser than the toxic one, 30th day after administration
Protocol: The dead animals were subjected to an autopsy and morpholigical and histological investigations of the inner organs were performed. The animals administered with the compounds in doses lesser than the toxic one were slaughtered after 3, 7, 14 and 30 days. Their inner organs were also subjected to an autopsy.

[3] = test system: cell immunity; test: Effect on cell immunity: time of rejection of a skin graft in tumor-carriers; type: in vivo, male rats of the Vistar line
Protocol: (§1) The immunological activity of the compound II according to the present invention was studied by variation of the characteristics of cellular and humoral immunity.
(§2) The effect of the compound II according to the present invention on the cell immunity was assessed by the time of rejection of a skin graft in the tumor-carriers. The effect on the humoral immunity was assessed by the number of antibody-forming cells in the spleen and antibodies in the blood serum formed in response to immunization, with ram ertyhrocytes, of both intact animals and the tumor-carriers.
The effect of the compound II according to the present invention on the cell immunity was studied on male rats of the Vistar line with a mass of 150-200 g. The animals were subjected to transplantation, by a standard method, of a skin graft of 2×3 cm size taken from rats of the August line. Then the animals were inoculated, under the thigh skin, with 2×10^8 cells of a regrafted strain of Schvetz's erythroleukosis.
CDDP was administered in a solution, while polymethylsiloxane and the compound II of the present invention--as a powder which was introduced into an opened abdominal cavity following to above-described procedure. The intact animals were used as a control. The time of rejection of the skin graft was fixed by variation of its temperature, colour and elasticity.

[4] = test system: humoral immunity; test: Effect on humoral immunity: antibody-forming cells in spleen and antibodies in blood serum of tumor-carriers; type: in vivo, rats of the Vistar line
Protocol: as §1, §2
Use was made of rats of the Vistar line which were incoulated, under the thigh skin, with 2×10^8 cells of a regrafted strain of Schvetz'erthroleukosis. […] On the 8th day after regrafting of the tumor the animals were subjected to immuniation by way of an intravenous administration of ram erythrocytes in the dose of1×10^6 cells. 4 days after immunization the animals were slaughtered by decapitation against the background of ethereal narcosis, the spleen was taken out and the content of antobidy-forming cells was determined threein by Erne'method, as well as titres of agglutinines and hemolysines in the peripheral blood using known methods.
The content of antibody-forming cells was determined for 10^6 splenocytes and for the entire mass of the spleen.

[5] = test system: ovary cancer; test: Clinical tests in patients with ovary cancer of the IV clinical stage; type: in vivo, human patients
From the text: Depending on the treatment method all the patients were divided into 2 groups.

[6] = test system: ovary carcinoma; details: in combination with vinblastin, actinomycin and prednisolone; cited from earlier work
[7] = 4 days after immunization with ram erythrocytes
[8] = group I: compound II then CDDP, 1 year after operation, group II: CDDP only, 9 months-1 year
[9] = group I: compound II then CDDP, 2-3.5 years after the operation, group II: CDDP only

For `N.N.[Cl][Pt][Cl]` [CDDP, cis-dichlorodiammonioplatinum (II)], the Survival of animals ([1]; on the 10th day after inoculation of the tumor cells) was 80%, the Life span ([1]; rats with Schvetz's erythroleukosis) was 11.5 ± 0.5 days and the “Degree of inhibition of the tumor growth” value ([1]; rats, single intraperitoneal or intratumoral administration on 4th day after inoculation) was 78%. For the same compound, the “Degree and restoration of histological changes” value [2] was “pronounced to even greater extent than in the case of administration of the compounds according to the present invention, they were only partly restored on the 30th day after administration”, the “Effect on characteristics of the cell immunity of tumor-carriers (in words)” value [3] was “does not substantially affect the characteristics of the cell immunity of the tumor-carriers” and the “Time of rejection of a skin graft” value ([3]; intraperitoneal CDDP 5.6, polymethylsiloxane 2,000, compound II 550 mg/kg) was 13.5 ± 0.5 days. For the same compound, the “Effect on humoral immunity (in words)” value [4] was “inhibits the humoral immunity”, the “Content of antibody-forming cells for the entire spleen” value [4, 7] was “(36.42 ± 2.15) × 10^3” and the “Content of antibody-forming cells per 10^6 of splenocytes” value [4, 7] was 20.50 ± 2.15. For the same compound, the “Full remission, number of patients” value ([5]; group I (30): compound II then CDDP, group II (47): CDDP only) was 14 patients, the “Full remission, share of patients” value ([5]; group I (30 patients): compound II during operation then intraperitoneal CDDP, 2-3.5 years, group II (47 patients): CDDP only) was 30% and the “Deaths, number of patients” value [5, 8] was 9 persons. For the same compound, the “Deaths, share of patients” value [5, 8] was 19%, the “Partial remission and stabilization of the process, number of patients” value [5, 9] was 14 persons and the “Partial remission and stabilization of the process, share of patients” value [5, 9] was 30%. The “Recurrence of the tumor growth, number of patients” value ([5]; group II: CDDP only) was 10 persons, the “Recurrence of the tumor growth, share of patients” value ([5]; group II: CDDP only) was 21% and the “Effectiveness of therapy of ovary carcinoma” value [6] was 100%.

Source: patent US5087712A, “Derivatives of platinum (II) with polymethylsiloxane, method for preparing same and antitumor agent based thereon” (priority 1989, dated 1992)
